Laboratory results as given in publication PMC5218480 (PLoS ONE, 2017).

System: MV-4-11 cells
Experiment: Gene expression microarray analysis (Affymetrix PrimeView) and GSEA
Type: cell-based, human
Parameters: RFU PODN (11730768_x_at) / Fold change /veh PODN (11730768_x_at) / RFU LINC00158 (11744669_a_at) / Fold change /veh LINC00158 (11744669_a_at) / RFU DUSP10 (11751237_a_at) / Fold change /veh DUSP10 (11751237_a_at) / RFU ID3 (11757404_x_at) / Fold change /veh ID3 (11757404_x_at) / RFU PLEKHG5 (11737974_s_at) / Fold change /veh PLEKHG5 (11737974_s_at) / RFU LRRC4B (11730491_at) / Fold change /veh LRRC4B (11730491_at) / RFU GIMAP4 (11747438_a_at) / Fold change /veh GIMAP4 (11747438_a_at) / RFU KRT8 (11758183_x_at) / Fold change /veh KRT8 (11758183_x_at) / RFU CNN1 (11734310_a_at) / Fold change /veh CNN1 (11734310_a_at) / RFU VPS37D (11726825_at) / Fold change /veh VPS37D (11726825_at) / RFU C10orf10 (11716522_x_at) / Fold change /veh C10orf10 (11716522_x_at) / RFU KIR2DL2 /// KIR2DL4 /// KIR2DL5A /// KIR2DL5B /// KIR2DS1 /// KIR2DS2 /// KIR2DS3 /// KIR2DS4 /// KIR3DL3 /// KIR3DL3 /// KIR3DS1 (11738374_at) / Fold change /veh KIR2DL2 /// KIR2DL4 /// KIR2DL5A /// KIR2DL5B /// KIR2DS1 /// KIR2DS2 /// KIR2DS3 /// KIR2DS4 /// KIR3DL3 /// KIR3DL3 /// KIR3DS1 (11738374_at) / RFU C1QL1 (11718748_at) / Fold change /veh C1QL1 (11718748_at) / RFU TMPRSS4 (11747572_a_at) / Fold change /veh TMPRSS4 (11747572_a_at) / RFU HAMP (11756126_x_at) / Fold change /veh HAMP (11756126_x_at) / RFU RNFT2 (11725882_a_at) / Fold change /veh RNFT2 (11725882_a_at) / RFU NR4A2 (11747474_a_at) / Fold change /veh NR4A2 (11747474_a_at) / RFU ABCC12 (11746883_a_at) / Fold change /veh ABCC12 (11746883_a_at) / RFU TMEM136 (11760407_x_at) / Fold change /veh TMEM136 (11760407_x_at) / RFU CLDN22 /// WWC2 (11732394_at) / Fold change /veh CLDN22 /// WWC2 (11732394_at) / RFU HLA-DPB1 (11760878_x_at) / Fold change /veh HLA-DPB1 (11760878_x_at) / RFU SPINT1 (11716480_a_at) / Fold change /veh SPINT1 (11716480_a_at) / RFU GAP43 (11754022_s_at) / Fold change /veh GAP43 (11754022_s_at) / RFU A4GNT (11735810_at) / Fold change /veh A4GNT (11735810_at) / RFU PRB3 (11715151_x_at) / Fold change /veh PRB3 (11715151_x_at) / RFU TUBB4B (11761932_at) / Fold change /veh TUBB4B (11761932_at) / RFU CAPN14 (11732068_a_at) / Fold change /veh CAPN14 (11732068_a_at) / RFU TMCC2 (11721928_a_at) / Fold change /veh TMCC2 (11721928_a_at) / RFU IRGQ (11745062_a_at) / Fold change /veh IRGQ (11745062_a_at) / RFU FAM174B (11720279_a_at) / Fold change /veh FAM174B (11720279_a_at) / RFU TMPRSS4 (11748680_a_at) / Fold change /veh TMPRSS4 (11748680_a_at) / RFU FAM212B (11763350_a_at) / Fold change /veh FAM212B (11763350_a_at) / RFU PLEKHG5 (11743358_a_at) / Fold change /veh PLEKHG5 (11743358_a_at) / RFU ZSCAN30 (11745921_a_at) / Fold change /veh ZSCAN30 (11745921_a_at) / RFU CMKLR1 (11741424_a_at) / Fold change /veh CMKLR1 (11741424_a_at) / RFU LOC101060620 /// MAPK8IP1 (11723275_at) / Fold change /veh LOC101060620 /// MAPK8IP1 (11723275_at) / RFU SPTSSB (11747773_x_at) / Fold change /veh SPTSSB (11747773_x_at) / RFU PRSS12 (11739890_at) / Fold change /veh PRSS12 (11739890_at) / RFU BIN1 (11741810_x_at) / Fold change /veh BIN1 (11741810_x_at) / RFU WNT11 (11732464_a_at) / Fold change /veh WNT11 (11732464_a_at) / RFU C10orf10 (11716521_a_at) / Fold change /veh C10orf10 (11716521_a_at) / RFU C5orf56 (11738089_at) / Fold change /veh C5orf56 (11738089_at) / RFU CYB561 (11721691_x_at) / Fold change /veh CYB561 (11721691_x_at) / RFU ANKRD19P (11752326_a_at) / Fold change /veh ANKRD19P (11752326_a_at) / RFU OR2T12 /// OR2T33 /// OR2T8 (11738714_s_at) / Fold change /veh OR2T12 /// OR2T33 /// OR2T8 (11738714_s_at) / RFU VCAN (11748164_a_at) / Fold change /veh VCAN (11748164_a_at) / RFU JSRP1 (11732532_at) / Fold change /veh JSRP1 (11732532_at) / RFU KRTAP10-11 (11738290_x_at) / Fold change /veh KRTAP10-11 (11738290_x_at) / RFU MYO3A (11730013_a_at) / Fold change /veh MYO3A (11730013_a_at) / RFU EBF3 (11725865_a_at) / Fold change /veh EBF3 (11725865_a_at) / RFU CAMK2N1 (11719241_x_at) / Fold change /veh CAMK2N1 (11719241_x_at) / RFU C5orf56 (11738088_a_at) / Fold change /veh C5orf56 (11738088_a_at) / RFU OLFML3 (11715873_a_at) / Fold change /veh OLFML3 (11715873_a_at) / RFU LOC100653217 /// NTM (11731650_a_at) / Fold change /veh LOC100653217 /// NTM (11731650_a_at) / RFU MAPK11 (11762145_a_at) / Fold change /veh MAPK11 (11762145_a_at) / RFU FIZ1 (11724087_x_at) / Fold change /veh FIZ1 (11724087_x_at) / RFU OASL (11726364_x_at) / Fold change /veh OASL (11726364_x_at) / RFU SOX15 (11748057_x_at) / Fold change /veh SOX15 (11748057_x_at) / RFU CD79A (11719716_a_at) / Fold change /veh CD79A (11719716_a_at) / RFU HIST1H1D (11736915_at) / Fold change /veh HIST1H1D (11736915_at) / RFU CASKIN2 (11723855_a_at) / Fold change /veh CASKIN2 (11723855_a_at) / RFU LOC730098 (11760151_x_at) / Fold change /veh LOC730098 (11760151_x_at) / RFU OR4N2 (11742367_at) / Fold change /veh OR4N2 (11742367_at) / RFU PRRT2 (11749266_a_at) / Fold change /veh PRRT2 (11749266_a_at) / RFU SNX32 (11753110_a_at) / Fold change /veh SNX32 (11753110_a_at) / RFU CDHR5 (11726645_a_at) / Fold change /veh CDHR5 (11726645_a_at) / RFU RCAN1 (11760418_a_at) / Fold change /veh RCAN1 (11760418_a_at) / RFU FAM167A (11723789_a_at) / Fold change /veh FAM167A (11723789_a_at) / RFU FAM26E (11764081_at) / Fold change /veh FAM26E (11764081_at) / RFU ISYNA1 (11749810_s_at) / Fold change /veh ISYNA1 (11749810_s_at) / RFU ACY1 (11761880_at) / Fold change /veh ACY1 (11761880_at) / RFU 11764098_at / Fold change /veh 11764098_at / RFU SAMD14 (11745864_x_at) / Fold change /veh SAMD14 (11745864_x_at) / RFU NPB (11741838_a_at) / Fold change /veh NPB (11741838_a_at) / RFU TMPRSS6 (11731388_a_at) / Fold change /veh TMPRSS6 (11731388_a_at) / RFU KRTAP10-2 (11738614_at) / Fold change /veh KRTAP10-2 (11738614_at) / RFU ARHGAP8 /// PRR5-ARHGAP8 (11727945_x_at) / Fold change /veh ARHGAP8 /// PRR5-ARHGAP8 (11727945_x_at) / RFU KRTAP5-7 /// NADSYN1 (11734609_at) / Fold change /veh KRTAP5-7 /// NADSYN1 (11734609_at) / RFU RASL12 (11751679_a_at) / Fold change /veh RASL12 (11751679_a_at) / RFU CDKN2B (11736163_a_at) / Fold change /veh CDKN2B (11736163_a_at) / RFU PRF1 (11729649_at) / Fold change /veh PRF1 (11729649_at) / RFU, ZNF638 /// ZNF638-IT1 / Fold change vs veh, ZNF638 /// ZNF638-IT1 / RFU, PANK3 / Fold change vs veh, PANK3 / RFU, SH3YL1 / Fold change vs veh, SH3YL1 / RFU, ZEB2 / Fold change vs veh, ZEB2 / RFU, NRIP1 / Fold change vs veh, NRIP1 / RFU, PTTG1IP / Fold change vs veh, PTTG1IP / RFU, CAPN2 / Fold change vs veh, CAPN2 / RFU, MED14 / Fold change vs veh, MED14 / RFU, SNORA58 / Fold change vs veh, SNORA58 / RFU, C1orf63 / Fold change vs veh, C1orf63 / RFU, LRRFIP1 / Fold change vs veh, LRRFIP1 / RFU, NDUFAF7 / Fold change vs veh, NDUFAF7 / RFU, SLC12A2 / Fold change vs veh, SLC12A2 / RFU, IBTK / Fold change vs veh, IBTK / RFU, ESF1 / Fold change vs veh, ESF1 / Fold change vs veh, TMEM50B / RFU, TAOK1 / Fold change vs veh, TAOK1 / RFU, ACBD3 / Fold change vs veh, ACBD3 / RFU, TMA16 / Fold change vs veh, TMA16 / RFU, RWDD3 / Fold change vs veh, RWDD3 / RFU, BCAT1 / Fold change vs veh, BCAT1 / RFU, EDEM3 / Fold change vs veh, EDEM3 / RFU, TMEM33 / Fold change vs veh, TMEM33 / RFU, WDR75 / Fold change vs veh, WDR75 / RFU, AHCTF1 / Fold change vs veh, AHCTF1 / RFU, TFRC / Fold change vs veh, TFRC / RFU, ZDHHC17 / Fold change vs veh, ZDHHC17 / RFU, NOM1 / Fold change vs veh, NOM1 / RFU, ARL8B / Fold change vs veh, ARL8B / RFU, ZBTB11 / Fold change vs veh, ZBTB11 / RFU, TAMM41 / Fold change vs veh, TAMM41 / RFU, KIAA1704 /// LOC100996395 / Fold change vs veh, KIAA1704 /// LOC100996395 / RFU, ING1 / Fold change vs veh, ING1 / RFU, TRMT61B / Fold change vs veh, TRMT61B / RFU, FUBP3 / Fold change vs veh, FUBP3 / RFU, TP53 / Fold change vs veh, TP53 / RFU, TNKS2 / Fold change vs veh, TNKS2 / RFU, ZFP14 / Fold change vs veh, ZFP14 / RFU, ACTR2 / Fold change vs veh, ACTR2 / RFU, PPP3R1 / Fold change vs veh, PPP3R1 / RFU, PIK3R1 / Fold change vs veh, PIK3R1 / RFU, HNRNPA1 / Fold change vs veh, HNRNPA1 / RFU, RNF170 / Fold change vs veh, RNF170 / RFU, ZNF28 / Fold change vs veh, ZNF28 / RFU, RNGTT / Fold change vs veh, RNGTT / RFU, OGT / Fold change vs veh, OGT / RFU, BRD1 / Fold change vs veh, BRD1 / RFU, MARS / Fold change vs veh, MARS / RFU, ZNF655 / Fold change vs veh, ZNF655 / RFU, FAHD1 / Fold change vs veh, FAHD1 / RFU, BDP1 / Fold change vs veh, BDP1 / RFU, LRRCC1 / Fold change vs veh, LRRCC1 / RFU, ARID1A / Fold change vs veh, ARID1A / RFU, ZNF146 / Fold change vs veh, ZNF146 / RFU, ZNF330 / Fold change vs veh, ZNF330 / RFU, GPN3 / Fold change vs veh, GPN3 / RFU, C9orf123 / Fold change vs veh, C9orf123 / RFU, N4BP2L2 / Fold change vs veh, N4BP2L2 / RFU, ARFIP1 / Fold change vs veh, ARFIP1 / RFU, FAM179B / Fold change vs veh, FAM179B / RFU, BCL10 / Fold change vs veh, BCL10 / RFU, UHRF1BP1L / Fold change vs veh, UHRF1BP1L / RFU, BET1 / Fold change vs veh, BET1 / RFU, CNOT2 / Fold change vs veh, CNOT2 / RFU, ZNF268 / Fold change vs veh, ZNF268 / Fold change vs veh, ZNF507 / RFU, DGCR2 / Fold change vs veh, DGCR2 / RFU, WDSUB1 / Fold change vs veh, WDSUB1 / Fold change vs veh, HSP90B1 /// MIR3652 / RFU, ADSS / Fold change vs veh, ADSS / RFU, GK / Fold change vs veh, GK / RFU, ZNF148 / Fold change vs veh, ZNF148 / RFU, TAF9 / Fold change vs veh, TAF9 / RFU, SLC1A5 / Fold change vs veh, SLC1A5 / RFU, SLMO2 / Fold change vs veh, SLMO2 / RFU, ABCC4 / Fold change vs veh, ABCC4 / RFU, LOC101060439 /// RAP1B / Fold change vs veh, LOC101060439 /// RAP1B / RFU, RFX7 / Fold change vs veh, RFX7 / RFU, GTPBP10 / Fold change vs veh, GTPBP10 / RFU, CNEP1R1 / Fold change vs veh, CNEP1R1 / RFU, BIVM-ERCC5 /// ERCC5 / Fold change vs veh, BIVM-ERCC5 /// ERCC5 / RFU, ILF3 / Fold change vs veh, ILF3 / RFU 11762660_at / Fold change /veh 11762660_at / RFU VCAN (11757783_s_at) / Fold change /veh VCAN (11757783_s_at) / RFU DDX43 (11728927_at) / Fold change /veh DDX43 (11728927_at) / RFU KRT8 (11758188_x_at) / Fold change /veh KRT8 (11758188_x_at) / RFU NKD1 (11759106_at) / Fold change /veh NKD1 (11759106_at) / RFU SRD5A1 (11742802_a_at) / Fold change /veh SRD5A1 (11742802_a_at) / RFU TPSAB1 /// TPSB2 (11721975_s_at) / Fold change /veh TPSAB1 /// TPSB2 (11721975_s_at) / RFU GSTM3 (11746129_a_at) / Fold change /veh GSTM3 (11746129_a_at) / RFU IL23R (11737362_x_at) / Fold change /veh IL23R (11737362_x_at) / RFU TMEM51 (11727254_a_at) / Fold change /veh TMEM51 (11727254_a_at) / RFU PIWIL2 (11732686_x_at) / Fold change /veh PIWIL2 (11732686_x_at) / RFU ORM1 (11744905_x_at) / Fold change /veh ORM1 (11744905_x_at) / RFU CCDC152 (11743942_at) / Fold change /veh CCDC152 (11743942_at) / RFU ECM1 (11717891_a_at) / Fold change /veh ECM1 (11717891_a_at) / RFU IL23R (11748794_a_at) / Fold change /veh IL23R (11748794_a_at) / RFU TNFAIP8L3 (11732012_x_at) / Fold change /veh TNFAIP8L3 (11732012_x_at) / RFU MBOAT4 (11741988_at) / Fold change /veh MBOAT4 (11741988_at) / RFU 11764193_at / Fold change /veh 11764193_at / RFU TMEM53 (11763286_at) / Fold change /veh TMEM53 (11763286_at) / RFU MAGEB2 (11727129_at) / Fold change /veh MAGEB2 (11727129_at) / RFU TMEM200A (11744735_a_at) / Fold change /veh TMEM200A (11744735_a_at) / RFU CCDC152 (11751479_a_at) / Fold change /veh CCDC152 (11751479_a_at) / RFU FAM211A (11726209_a_at) / Fold change /veh FAM211A (11726209_a_at) / RFU RGS16 (11746705_a_at) / Fold change /veh RGS16 (11746705_a_at) / RFU VCAN (11755009_s_at) / Fold change /veh VCAN (11755009_s_at) / RFU RHOB (11743442_s_at) / Fold change /veh RHOB (11743442_s_at) / RFU RGS16 (11720943_a_at) / Fold change /veh RGS16 (11720943_a_at) / RFU RGS16 (11720944_at) / Fold change /veh RGS16 (11720944_at) / RFU, VPS4B / Fold change vs veh, VPS4B / RFU, CREB1 / Fold change vs veh, CREB1 / RFU, DNAJC13 / Fold change vs veh, DNAJC13 / RFU, GNAQ / Fold change vs veh, GNAQ / RFU, CDK5R1 / Fold change vs veh, CDK5R1 / RFU, ZRANB3 / Fold change vs veh, ZRANB3 / RFU, CUL4A / Fold change vs veh, CUL4A / RFU, CCNY / Fold change vs veh, CCNY / RFU, UFL1 / Fold change vs veh, UFL1 / RFU, COG3 / Fold change vs veh, COG3 / RFU, DIAPH2 / Fold change vs veh, DIAPH2 / RFU, SKA2 / Fold change vs veh, SKA2 / RFU, AFF3 / Fold change vs veh, AFF3 / RFU, LMF1 / Fold change vs veh, LMF1 / RFU, IPO11 / Fold change vs veh, IPO11 / RFU, DFFB / Fold change vs veh, DFFB / RFU, FOXP1 / Fold change vs veh, FOXP1 / RFU, CARD8 / Fold change vs veh, CARD8 / RFU, STRN3 / Fold change vs veh, STRN3 / RFU, ADK / Fold change vs veh, ADK / RFU, RASSF2 / Fold change vs veh, RASSF2 / RFU, WIPF1 / Fold change vs veh, WIPF1 / RFU, LARP1B / Fold change vs veh, LARP1B / RFU, RASA1 / Fold change vs veh, RASA1 / RFU, RB1 / Fold change vs veh, RB1 / RFU, PPFIA1 / Fold change vs veh, PPFIA1 / RFU, MAT2A / Fold change vs veh, MAT2A / RFU, CCT5 / Fold change vs veh, CCT5 / RFU, WDR92 / Fold change vs veh, WDR92 / RFU, CUX1 / Fold change vs veh, CUX1 / RFU, TTC7A / Fold change vs veh, TTC7A / RFU, TMEM135 / Fold change vs veh, TMEM135 / RFU, DEPTOR / Fold change vs veh, DEPTOR / RFU, CPM / Fold change vs veh, CPM / RFU, DNAJB6 / Fold change vs veh, DNAJB6 / RFU, CACNA2D3 / Fold change vs veh, CACNA2D3 / RFU, DTX4 / Fold change vs veh, DTX4 / RFU, TFCP2 / Fold change vs veh, TFCP2 / RFU, GMCL1 /// GMCL1P1 / Fold change vs veh, GMCL1 /// GMCL1P1 / RFU, AEBP2 / Fold change vs veh, AEBP2 / RFU, SNHG1 /// SNORD22 /// SNORD25 /// SNORD26 /// SNORD27 /// SNORD28 /// SNORD29 /// SNORD31 / Fold change vs veh, SNHG1 /// SNORD22 /// SNORD25 /// SNORD26 /// SNORD27 /// SNORD28 /// SNORD29 /// SNORD31 / Fold change (Aza/veh), C12orf56 (ProbeSet 11735607_a_at) / Fold change (ACY-1035/veh), C12orf56 (ProbeSet 11735607_a_at) / Fold change (Aza/veh), FGFR1OP (ProbeSet 11751329_s_at) / Fold change (ACY-1035/veh), FGFR1OP (ProbeSet 11751329_s_at) / Fold change (Aza/veh), VPS36 (ProbeSet 11739960_a_at) / Fold change (ACY-1035/veh), VPS36 (ProbeSet 11739960_a_at) / RFU SYPL1 (11715823_x_at) / Fold change /veh SYPL1 (11715823_x_at) / RFU IGFBP7 (11715501_s_at) / Fold change /veh IGFBP7 (11715501_s_at) / RFU REEP3 (11722064_at) / Fold change /veh REEP3 (11722064_at) / RFU IGLL1 (11728026_x_at) / Fold change /veh IGLL1 (11728026_x_at): dose or concentration left out as unconfirmed
Details: ProbeSet 11716999_a_at; LIST D

Nc1ncn([C@@H]2O[C@H](CO)[C@@H](O)[C@H]2O)c(=O)n1 [azacitidine]
RFU, RASA1: 172.86 RFU
